Consider 24 compounds from patent US12060347B2 (BRISTOL-MYERS SQUIBB COMPANY, priority 2016, dated 2024).

In the assay the target is T1, human PAR4 (Homo sapiens, UniProt Q96RI0).
T1 construct: expressed in transfected cells; host or cells: HEK293 PAR4 Clone 1.2A (BMS Arctic ID 383940)
T1 sequence (Q96RI0 18-385): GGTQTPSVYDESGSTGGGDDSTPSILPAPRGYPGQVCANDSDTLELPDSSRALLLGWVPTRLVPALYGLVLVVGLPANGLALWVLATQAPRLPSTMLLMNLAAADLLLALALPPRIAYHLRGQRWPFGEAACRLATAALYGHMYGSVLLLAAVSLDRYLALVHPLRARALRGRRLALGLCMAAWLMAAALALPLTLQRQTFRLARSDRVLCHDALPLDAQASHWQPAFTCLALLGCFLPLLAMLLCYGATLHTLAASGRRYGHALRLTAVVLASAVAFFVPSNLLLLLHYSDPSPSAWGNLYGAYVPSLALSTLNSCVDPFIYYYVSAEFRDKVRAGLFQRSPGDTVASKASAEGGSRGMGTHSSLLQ
Briefly: PAR4 FLIPR assay: antagonism of agonist-peptide-induced calcium mobilization in PAR4-expressing HEK293 cells. The assay is classed as cell-based. To be noted: H-Ala-Phe(4-F)-[…]NH2-induced intracellular calcium mobilization, 11-point curves. A general note: Calcium flux is commonly read through the fluorescence of an indicator in the cells.

As to `CCOc1cnc2c(-c3nc4cc(F)c(O[C@@H](C)[C@@H](C)OC(=O)Nc5cnc([C@@H](C)O)nc5)cc4s3)cc(C)cc2n1` [Example 536, (2R,3S)-3-((2-(2-ethoxy-7-methylquinoxalin-5-yl)-5-fluorobenzo[d]thiazol-6-yl)oxy) butan-2-yl (2-((R)-1-hydroxyethyl)pyrimidin-5-yl)carbamate], the IC50 (in general, the concentration needed to halve the response being measured) was determined as 4.9 nM.
As to `COc1cnc2c(-c3nc4cc(F)c(O[C@@H](C)[C@@H](C)OC(=O)Nc5cnc(CO)nc5)cc4s3)cc(Cl)cc2c1` [Example 539, (2R,3S)-3-((2-(6-chloro-3-methoxyquinolin-8-yl)-5-fluorobenzo[d]thiazol-6-yl)oxy)butan-2-yl (2-(hydroxymethyl)pyrimidin-5-yl)carbamate], the IC50 turned out to be 6.5 nM.
To `COc1cnc2c(-c3nc4cc(F)c(O[C@@H](C)[C@@H](C)OC(=O)Nc5cnc(OC[C@@H](C)O)nc5)cc4s3)cc(Cl)cc2c1` [Example 540, (2R,3S)-3-((2-(6-chloro-3-methoxyquinolin-8-yl)-5-fluorobenzo[d]thiazol-6-yl)oxy)butan-2-yl (2-((R)-2-hydroxypropoxy)pyrimidin-5-yl)carbamate] belongs 3 nM; to `COc1cnc2c(-c3nc4cc(F)c(O[C@@H](C)[C@@H](C)OC(=O)Nc5cnc(OC[C@H](C)O)nc5)cc4s3)cc(Cl)cc2c1` [Example 541, (2R,3S)-3-((2-(6-chloro-3-methoxyquinolin-8-yl)-5-fluorobenzo[d]thiazol-6-yl)oxy)butan-2-yl (2-((S)-2-hydroxypropoxy)pyrimidin-5-yl)carbamate], 3.4 nM.
To `COc1cnc2c(-c3nc4c(Cl)c(F)c(OC[C@@H](C)OC(=O)Nc5ccc(CCO)nc5)cc4s3)cc(C)cc2n1` [Example 542, (R)-1-((4-chloro-5-fluoro-2-(2-methoxy-7-methylquinoxalin-5-yl)benzo[d]thiazol-6-yl)oxy)propan-2-yl (6-(2-hydroxyethyl)pyridin-3-yl)carbamate] belongs 1.6 nM; to `COc1cnc2c(-c3nc4cc(F)c(OC[C@@H](C)OC(=O)Nc5ccc(CCO)nc5)cc4s3)cc(C)cc2n1` [Example 543, (R)-1-((5-fluoro-2-(2-methoxy-7-methylquinoxalin-5-yl)benzo[d]thiazol-6-yl)oxy)propan-2-yl (6-(2-hydroxyethyl)pyridin-3-yl)carbamate], 1.3 nM; to `COc1cnc2c(-c3nc4cc(F)c(OC[C@@H](C)OC(=O)Nc5cnc(C)c(CO)c5)cc4s3)cc(C)cc2n1` [Example 544, (R)-1-((5-fluoro-2-(2-methoxy-7-methylquinoxalin-5-yl)benzo[d]thiazol-6-yl)oxy)propan-2-yl (5-(hydroxymethyl)-6-methylpyridin-3-yl)carbamate], 34 nM.
Then `COc1cnc2c(-c3nc4cc(F)c(OC[C@@H](C)OC(=O)Nc5ccnc(CCO)c5)cc4s3)cc(C)cc2n1` [Example 545, (R)-1-((5-fluoro-2-(2-methoxy-7-methylquinoxalin-5-yl)benzo[d]thiazol-6-yl)oxy)propan-2-yl (2-(2-hydroxyethyl)pyridin-4-yl)carbamate], with 1.5 nM.
Turning to `COc1cnc2c(-c3nc4cc(F)c(OC[C@@H](C)OC(=O)Nc5ccc(CO)nc5)cc4s3)cc(C)cc2n1` [Example 546, (R)-1-((5-fluoro-2-(2-methoxy-7-methylquinoxalin-5-yl)benzo[d]thiazol-6-yl)oxy)propan-2-yl (6-(hydroxymethyl)pyridin-3-yl)carbamate], the IC50 turned out to be 14 nM.
Then `COc1cnc2c(-c3nc4cc(F)c(O[C@@H](C)[C@@H](C)OC(=O)Nc5ccnc(CCO)c5)cc4s3)cc(C)cc2n1` [Example 547, (2R,3S)-3-((5-fluoro-2-(2-methoxy-7-methylquinoxalin-5-yl)benzo[d]thiazol-6-yl)oxy)butan-2-yl (2-(2-hydroxyethyl)pyridin-4-yl)carbamate], with 5.2 nM; and `COc1cnc2c(-c3nc4cc(F)c(O[C@@H](C)[C@@H](C)OC(=O)Nc5ccnc(O[C@H](C)CO)c5)cc4s3)cc(C)cc2n1` [Example 549, (2R,3S)-3-((5-fluoro-2-(2-methoxy-7-methylquinoxalin-5-yl)benzo[d]thiazol-6-yl)oxy)butan-2-yl (2-(((R)-1-hydroxypropan-2-yl)oxy)pyridin-4-yl)carbamate], with 1 nM; and `COc1cnc2c(-c3nc4cc(F)c(O[C@@H](C)[C@@H](C)OC(=O)Nc5ccnc(OC[C@@H](C)O)c5)cc4s3)cc(C)cc2n1` [Example 550, (2R,3S)-3-((5-fluoro-2-(2-methoxy-7-methylquinoxalin-5-yl)benzo[d]thiazol-6-yl)oxy)butan-2-yl (2-((R)-2-hydroxypropoxy)pyridin-4-yl)carbamate], with 0.4 nM.
Consider `COc1cnc2c(-c3nc4cc(F)c(OC[C@@H](C)OC(=O)Nc5ccnc(OCCO)c5)cc4s3)cc(C)cc2n1` [Example 552, (R)-1-((5-fluoro-2-(2-methoxy-7-methylquinoxalin-5-yl)benzo[d]thiazol-6-yl)oxy)propan-2-yl (2-(2-hydroxyethoxy)pyridin-4-yl)carbamate], for which the IC50 worked out at 0.7 nM.
`COc1cnc2c(-c3nc4cc(F)c(OC[C@@H](C)OC(=O)Nc5cnc(O[C@H](C)CO)nc5)cc4s3)cc(C)cc2n1` [Example 553, (R)-1-((5-fluoro-2-(2-methoxy-7-methylquinoxalin-5-yl)benzo[d]thiazol-6-yl)oxy)propan-2-yl (2-(((R)-1-hydroxypropan-2-yl)oxy)pyrimidin-5-yl)carbamate]: the IC50 stood at 1.2 nM.
Consider `COc1cnc2c(-c3nc4cc(F)c(O[C@@H](C)[C@@H](C)OC(=O)Nc5cnc(O[C@H](C)CO)nc5)cc4s3)cc(C)cc2n1` [Example 554, (2R,3S)-3-((5-fluoro-2-(2-methoxy-7-methylquinoxalin-5-yl)benzo[d]thiazol-6-yl)oxy)butan-2-yl (2-(((R)-1-hydroxypropan-2-yl)oxy)pyrimidin-5-yl)carbamate], for which the half-maximal inhibitory concentration (IC50) worked out at 0.7 nM.
Turning to `COc1cnc2c(-c3nc4cc(F)c(OC[C@@H](C)OC(=O)Nc5cnc(OCCO)nc5)cc4s3)cc(C)cc2n1` [Example 555, (R)-1-((5-fluoro-2-(2-methoxy-7-methylquinoxalin-5-yl)benzo[d]thiazol-6-yl)oxy)propan-2-yl (2-(2-hydroxyethoxy)pyrimidin-5-yl)carbamate], the IC50 was determined as 1.1 nM.
`COc1cnc2c(-c3nc4cc(F)c(O[C@@H](C)[C@@H](C)OC(=O)Nc5cnc(OCCO)nc5)cc4s3)cc(C)cc2n1` [Example 556, (2R,3S)-3-((5-fluoro-2-(2-methoxy-7-methylquinoxalin-5-yl)benzo[d]thiazol-6-yl)oxy)butan-2-yl (2-(2-hydroxyethoxy)pyrimidin-5-yl)carbamate]: the half-inhibitory concentration (IC50) was 0.7 nM.
To `COc1cnc2c(-c3nc4cc(F)c(OC[C@@H](C)OC(=O)Nc5ccc(CC(C)(C)O)nc5)cc4s3)cc(C)cc2n1` [Example 557, (R)-1-((5-fluoro-2-(2-methoxy-7-methylquinoxalin-5-yl)benzo[d]thiazol-6-yl)oxy)propan-2-yl (6-(2-hydroxy-2-methylpropyl)pyridin-3-yl)carbamate] belongs 0.7 nM; to `COc1cnc2c(-c3nc4cc(F)c(OC[C@@H](C)OC(=O)Nc5cnc(O[C@@H](C)CO)nc5)cc4s3)cc(C)cc2n1` [Example 558, (R)-1-((5-fluoro-2-(2-methoxy-7-methylquinoxalin-5-yl)benzo[d]thiazol-6-yl)oxy)propan-2-yl (2-(((S)-1-hydroxypropan-2-yl)oxy)pyrimidin-5-yl)carbamate], 1.5 nM; to `COc1cnc2c(-c3nc4cc(F)c(O[C@@H](C)[C@@H](C)OC(=O)Nc5ccc(CC(C)(C)O)nc5)cc4s3)cc(C)cc2n1` [Example 559, (2R,3S)-3-((5-fluoro-2-(2-methoxy-7-methylquinoxalin-5-yl)benzo[d]thiazol-6-yl)oxy)butan-2-yl (6-(2-hydroxy-2-methylpropyl)pyridin-3-yl)carbamate], 0.9 nM.
For `COc1cnc2c(-c3nc4cc(F)c(O[C@@H](C)[C@@H](C)OC(=O)Nc5cnc(O[C@@H](C)CO)nc5)cc4s3)cc(C)cc2n1` [Example 560, (2R,3S)-3-((5-fluoro-2-(2-methoxy-7-methylquinoxalin-5-yl)benzo[d]thiazol-6-yl)oxy)butan-2-yl (2-(((S)-1-hydroxypropan-2-yl)oxy)pyrimidin-5-yl)carbamate], the IC50 is 1.4 nM.
Then `COc1cnc2c(-c3nc4cc(F)c(O[C@@H](C)[C@@H](C)OC(=O)Nc5ccnc(CC(C)(C)O)c5)cc4s3)cc(C)cc2n1` [Example 561, (2R,3S)-3-((5-fluoro-2-(2-methoxy-7-methylquinoxalin-5-yl)benzo[d]thiazol-6-yl)oxy)butan-2-yl (2-(2-hydroxy-2-methylpropyl)pyridin-4-yl)carbamate], with 53 nM; and `COc1cnc2c(-c3nc4cc(F)c(O[C@@H](C)[C@@H](C)OC(=O)Nc5ccnc(OCC(C)(C)O)c5)cc4s3)cc(C)cc2n1` [Example 562, (2R,3S)-3-((5-fluoro-2-(2-methoxy-7-methylquinoxalin-5-yl)benzo[d]thiazol-6-yl)oxy)butan-2-yl (2-(2-hydroxy-2-methylpropoxy)pyridin-4-yl)carbamate], with 1.6 nM.
Take `COc1cnc2c(-c3nc4cc(F)c(O[C@@H](C)[C@@H](C)OC(=O)Nc5ccnc(OCCC(C)(C)O)c5)cc4s3)cc(C)cc2n1` [Example 563, (2R,3S)-3-((5-fluoro-2-(2-methoxy-7-methylquinoxalin-5-yl)benzo[d]thiazol-6-yl)oxy)butan-2-yl (2-(3-hydroxy-3-methylbutoxy)pyridin-4-yl)carbamate]: the IC50 was determined as 2.8 nM.
